Source: patent publication US20220023269A1, “Methods Of Treating Diabetes In Severe Insulin-Resistant Diabetic Subjects” (Balticgruppen Bio AB, priority 2018, published 2022)

Columns and labels:
[1] = tested on: AMPK in human skeletal myotubes; experiment: AMPK activation assay in human skeletal myotubes; format: cell-based; conditions: cells preferentially expressing β2 subunit
Description: (§1) All cell lines were lysed in 0.1 M Tris-HCl, pH 6.8, 2% SDS, 10 mM sodium fluoride (SIGMA #S7920), 10 mM β-glycerophosphate (SIGMA #G6376), and 1 mM sodium vanadate (SIGMA #72060) and supernatant collected after 1 minute at 14,000 rpm. Islets (human and mouse) were lysed in 0.1 M Tris-HCl, pH 6.8, 2% SDS, protease inhibitor (Roche #04 693 124 001) and phosphatase inhibitor (Roche #04 906 837 001). Right calf muscle, heart, iWAT, and interscapular BAT was crushed in a pestle using liquid nitrogen and homogenised in ice cold RIPA buffer (150 mM sodium chloride (SIGMA #S7653), 1.0% NP40 (USB), 0.5% sodium deoxycholate (SIGMA #D6750), 0.1% SDS, 50 mM Tris pH 8.0, 20 mM sodium pyrophosphate (SIGMA #71515), 10 mM sodium fluoride, 10 mM β-glycerolphosphate, 1 mM sodium vanadate and protease inhibitor cocktail (Roche #04693124001), 1 tablet/10 ml lysis buffer). The supernatant was collected after 2 min at 14,000 rpm. This procedure was repeated until all fat was eliminated and the supernatant was clear, at 4° C. Samples were analysed on 4-15% polyacrylamide gels. Values were normalised toward AMPKα, β-Actin, GAPDH or the respective non-phosphorylated counterpart.
Table 3 contains origin of cell lines, growth conditions and settings for activation of AMPK via the test material. […]

[2] = tested on: CBA mice on HFD (DIO mice); experiment: CBA mice on test material-HFD (0.4, 0.8, 2 mg/g) for 7 w; format: in vivo
Description: 12 weeks old CBA mice were randomised into a HFD and three test material-HFD groups (0.4 mg/g, 0.8 mg/g, and 2 mg/g) for 7 weeks. 16-17 weeks old CBA mice on regular diet was used as controls where indicated.
Animals were housed at 12:12 hour light/dark cycle in a temperature/humidity controlled (22° C./50% humidity) room and ad libitum feeding with either standard chow (Special Diet Service #801730), high fat diet (HFD) (Research diets, Inc. #D12492) or HFD (Research diets, Inc. #D12492) custom formulated with test material at 2 mg/g test material, 0.8 mg/g test material and 0.4 mg/g test material, respectively.
as §1, with “counterpart. […]” for “counterpart.”

[3] = 0.4, 0.8 and 2 mg/g in HFD, 6 w

For `O=C(Nc1nc(=O)n(Cc2ccc(Cl)cc2)s1)c1ccc(Cl)cc1` [test material, 4-chloro-N-[2-[(4-chlorophenyl)methyl]-3-oxo-1,2,4-thiadiazol-5-yl]benzamide], the pAMPK [1] was “increased pAMPK”, the “expression of Cd36 and Cpt1b in BAT” value ([2]; 2 mg/g in HFD) was “significantly increased the expression of Cd36” and the “expression of Fas, Scd1 and Acc1 in BAT” value ([2]; 2 mg/g in HFD) was “potently reduced the expression”. The “weights of BAT pads” value ([2]; 2 mg/g in HFD, vs HFD) was “reduced”, the “weights of iWAT and eWAT fat pads” value ([2]; 2 mg/g in HFD, vs HFD) was “markedly lower weights” and the “dysglycemia (fasted blood glucose)” value [2, 3] was “potently prevented”. The “hyperinsulinemia (fasted insulin)” value [2, 3] was “potently prevented”, the “insulin resistance (HOMA-IR)” value [2, 3] was “potently prevented” and the “pAMPK in calf muscle” value ([2]; 0.4, 0.8 and 2 mg/g in HFD, 7 w) was “dose-dependently increased pAMPK”. The heart glycogen content ([2]; 0.8 or 2 mg/g in HFD, 7 w) was “reduced in a dose-dependent manner”, the heart weight/tibia length ([2]; 0.8 or 2 mg/g in HFD, 7 w) was “did not cause an increase in heart weight/tibia length” and the “pAMPK levels in the heart” value ([2]; 0.8 or 2 mg/g in HFD, 7 w) was “significantly increased pAMPK levels in the heart”. The “Cpt1b mRNA levels in liver” value ([2]; DIO mice) was “dose-dependently increased Cpt1b”, the hepatic steatosis ([2]; DIO mice) was “prevented and reduced hepatic steatosis” and the “Acc2, Fas and Scd1 mRNA levels in liver” value ([2]; DIO mice, dose-dependent) was “decreased Acc2, Fas, and Scd1 mRNA levels”. The “UCP1 expression in BAT and iWAT” value ([2]; slightly, dose-dependent) was “reduced UCP1 expression”, the “Atgl mRNA levels in iWAT” value ([2]; test material-HFD 7 w) was “increased both p-S406 ATGL levels and Atgl mRNA levels” and the “p-S406 ATGL levels in iWAT” value ([2]; test material-HFD 7 w) was “increased both p-S406 ATGL levels and Atgl mRNA levels”.
